# Legend:
# L1210 [1] = assay: Antitumor activity was assessed against L1210 tumors in B6D2F1 mouse by inoculation of 10e5 tumor cells through intraperitoneal route and number of Survivors to duration was reported at 40 mg/kg peroral dose; 4/10; details: route oral
# [2] = Antitumor activity was assessed against TLX5 tumors in CBA/CA mouse by inoculation of 2 x 10e5 tumor cells through subcutaneous route and mean death of animals (treated/control) was reported at 160 mg/kg dose; type: functional
# [3] = Antitumor activity was assessed against TLX5 tumors in CBA/CA mouse by inoculation of 2 x 10e5 tumor cells through subcutaneous route and mean death of animals (treated/control) was reported at 80 mg/kg dose; type: functional
# L1210 [4] = assay: Antitumor activity was assessed against L1210 tumors in B6D2F1 mouse by inoculation of 10e5 tumor cells through intravenous route and mean death of animals (treated/control) was reported at 40 mg/kg peroral dose; type: functional; details: route oral
# L1210 [5] = assay: Antitumor activity was assessed against L1210 tumors in B6D2F1 mouse by inoculation of 10e5 tumor cells through intraperitoneal route and number of Survivors to duration was reported at 20 mg/kg peroral dose; 8/10; details: route oral
# [6] = Antitumor activity was assessed against TLX5 tumors in CBA/CA mouse by inoculation of 2 x 10e5 tumor cells through subcutaneous route and mean death of animals (treated/control) was reported at 40 mg/kg dose; type: functional
# L1210 [7] = assay: Antitumor activity was assessed against L1210 tumors in B6D2F1 mouse by inoculation of 10e5 tumor cells through intravenous route and mean death of animals (treated/control) was reported at 10 mg/kg peroral dose; type: functional; details: route oral
# [8] = Antitumor activity was assessed against TLX5 tumors in CBA/CA mouse by inoculation of 2 x 10e5 tumor cells through subcutaneous route and mean death of animals (treated/control) was reported at 20 mg/kg dose; type: functional
# L1210 [9] = assay: Antitumor activity was assessed against L1210 tumors in B6D2F1 mouse by inoculation of 10e5 tumor cells through intravenous route and mean death of animals (treated/control) was reported at 20 mg/kg peroral dose; type: functional; details: route oral
# [10] = Antitumor activity was assessed against TLX5 tumors in CBA/CA mouse by inoculation of 2 x 10e5 tumor cells through subcutaneous route and number of Survivors to duration was reported at 40 mg/kg iv dose; 5/5
# [11] = Antitumor activity was assessed against TLX5 tumors in CBA/CA mouse by inoculation of 2 x 10e5 tumor cells through subcutaneous route and number of Survivors to duration was reported at 80 mg/kg iv dose; 3/5
# L1210 [12] = assay: Antitumor activity was assessed against L1210 tumors in B6D2F1 mouse by inoculation of 10e5 tumor cells through iv route and mean death of animals (treated/control) was reported at 200 mg/kg po dose; type: functional
# L1210 [13] = assay: Antitumor activity was assessed against L1210 tumors in B6D2F1 mouse by inoculation of 10e5 tumor cells through iv route and mean death of animals (treated/control) was reported at 50 mg/kg po dose; type: functional
# L1210 [14] = assay: Antitumor activity was assessed against L1210 tumors in B6D2F1 mouse by inoculation of 10e5 tumor cells through iv route and number of survivors to duration was reported at 200 mg/kg po dose; 2/7; type: functional
# L1210 [15] = assay: Antitumor activity was assessed against L1210 tumors in B6D2F1 mouse by inoculation of 10e5 tumor cells through iv route and mean death of animals (treated/control) was reported at 100 mg/kg po dose; type: functional
# L1210 [16] = assay: Antitumor activity was assessed against L1210 tumors in B6D2F1 mouse by inoculation of 10e5 tumor cells through intraperitoneal route and mean death of animals (treated/control) was reported at 50 mg/kg peroral dose; type: functional; details: route oral
# L1210 [17] = assay: Antitumor activity was assessed against L1210 tumors in B6D2F1 mouse by inoculation of 10e5 tumor cells through intraperitoneal route and mean death of animals (treated/control) was reported at 100 mg/kg peroral dose; type: functional; details: route oral
# [18] = Antitumor activity was assessed against TLX5 tumors in CBA/CA mouse by inoculation of 2 x 10e5 tumor cells through subcutaneous route and mean death of animals (treated/control) was reported at 40 mg/kg iv dose; type: functional
# [19] = Antitumor activity was assessed against TLX5 tumors in CBA/CA mouse by inoculation of 2 x 10e5 tumor cells through sc route and number of Survivors to duration was reported at 320 mg/kg iv dose; 1/5; type: functional
# [20] = Antitumor activity was assessed against TLX5 tumors in CBA/CA mouse by inoculation of 2 x 10e5 tumor cells through subcutaneous route and mean death of animals (treated/control) was reported at 320 mg/kg iv dose; type: functional
# [21] = Antitumor activity was assessed against TLX5 tumors in CBA/CA mouse by inoculation of 2 x 10e5 tumor cells through subcutaneous route and mean death of animals (treated/control) was reported at 80 mg/kg iv dose; type: functional
# [22] = Antitumor activity was assessed against TLX5 tumors in CBA/CA mouse by inoculation of 2 x 10e5 tumor cells through subcutaneous route and mean death of animals (treated/control) was reported at 160 mg/kg iv dose; type: functional
# [23] = Antitumor activity was assessed against TLX5 tumors in CBA/CA mouse by inoculation of 2 x 10e5 tumor cells through subcutaneous route and mean death of animals (treated/control) was reported at 640 mg/kg iv dose; type: functional
# L1210 [24] = assay: Antitumor activity was assessed against L1210 tumors in B6D2F1 mouse by inoculation of 10e5 tumor cells through intraperitoneal route and mean death of animals (treated/control) was reported at 200 mg/kg peroral dose; type: functional; details: route oral
compound,measurement,setting,value
CN(C)C(=O)c1ncn2c(=O)n(CCCl)nnc12,Survivors,L1210 [1],4
same,T/C,[2],68%
same,T/C,[3],>358%
same,T/C,L1210 [4],>235%
same,Survivors,L1210 [5],8
same,T/C,[6],>508%
same,T/C,L1210 [7],197%
same,T/C,[8],161%
same,T/C,L1210 [9],>290%
same,Survivors,[10],5
same,Survivors,[11],3
CCCc1nc(C(N)=O)c2nnn(CCCl)c(=O)n12,T/C,L1210 [12],>295%
same,T/C,L1210 [13],151%
same,Survivors,L1210 [14],2
same,T/C,L1210 [15],186%
O=C(c1ncn2c(=O)n(CCCl)nnc12)N1CCCCC1,T/C,L1210 [16],100%
same,T/C,L1210 [17],108%
same,T/C,[18],98%
same,Survivors,[19],1
same,T/C,[20],>234%
same,T/C,[21],102%
same,T/C,[22],120%
same,T/C,[23],25%
same,T/C,L1210 [24],171%

# Source: ChEMBL document CHEMBL1123898, “Antitumor imidazotetrazines. 14. Synthesis and antitumor activity of 6- and 8-substituted imidazo[5,1-d]-1,2,3,5-tetrazinones and 8-substituted pyrazolo[5,1-d]-1,2,3,5-tetrazinones” (1987)
